Test results from the NIST ThermoML archive (doi:10.1016/j.jct.2012.05.003).

What was measured:
[1] = for molar entropy: Vacuum adiabatic calorimetry
[2] = Molar enthalpy of transition or fusion; conditions: Crystal; Adiabatic calorimetry

O=C1c2ccccc2-c2ccccc21 [9(9H)-fluorenone]
[1]
Conditions	molar entropy [J/K/mol]	vapor or sublimation pressure [kPa]
5 K, 101.33 kPa, Crystal	0.2	–
10 K, 101.33 kPa, Crystal	1.47	–
20 K, 101.33 kPa, Crystal	7.81	–
30 K, 101.33 kPa, Crystal	16.59	–
40 K, 101.33 kPa, Crystal	26.02	–
50 K, 101.33 kPa, Crystal	35.44	–
60 K, 101.33 kPa, Crystal	44.68	–
70 K, 101.33 kPa, Crystal	53.57	–
80 K, 101.33 kPa, Crystal	62.15	–
90 K, 101.33 kPa, Crystal	70.45	–
100 K, 101.33 kPa, Crystal	78.48	–
120 K, 101.33 kPa, Crystal	93.91	–
140 K, 101.33 kPa, Crystal	108.7	–
160 K, 101.33 kPa, Crystal	123.08	–
180 K, 101.33 kPa, Crystal	137.18	–
200 K, 101.33 kPa, Crystal	151.1	–
220 K, 101.33 kPa, Crystal	164.93	–
240 K, 101.33 kPa, Crystal	178.73	–
260 K, 101.33 kPa, Crystal	192.51	–
280 K, 101.33 kPa, Crystal	206.3	–
298.15 K, 101.33 kPa, Crystal	218.82	–
300 K, 101.33 kPa, Crystal	220.1	–
320 K, 101.33 kPa, Crystal	233.91	–
340 K, 101.33 kPa, Crystal	247.73	–
340 K, 101.33 kPa, Liquid	291.47	–
356.52 K, 101.33 kPa, Crystal	259.19	–
356.52 K, 101.33 kPa, Liquid	305.07	–
360 K, 101.33 kPa, Liquid	307.89	–
368.12 K, Liquid, Inclined piston gauge	–	0.0161
378.12 K, Liquid, Inclined piston gauge	–	0.0308
380 K, 101.33 kPa, Liquid	323.92	–
388.12 K, Liquid, Inclined piston gauge	–	0.0562
398.12 K, Liquid, Inclined piston gauge	–	0.0987
400 K, 101.33 kPa, Liquid	339.6	–
408.12 K, Liquid, Inclined piston gauge	–	0.1672
418.12 K, Liquid, Inclined piston gauge	–	0.2744
420 K, 101.33 kPa, Liquid	354.94	–
428.11 K, Liquid, Inclined piston gauge	–	0.4382
438.11 K, Liquid, Inclined piston gauge	–	0.6825
440 K, 101.33 kPa, Liquid	369.98	–
448.11 K, Liquid, Inclined piston gauge	–	1.038
458.11 K, Liquid, Inclined piston gauge	–	1.544
460 K, 101.33 kPa, Liquid	384.73	–
464.96 K, Liquid, Twin ebulliometer	–	2
468.11 K, Liquid, Inclined piston gauge	–	2.25
472.82 K, Liquid, Twin ebulliometer	–	2.666
478.11 K, Liquid, Inclined piston gauge	–	3.216
480 K, 101.33 kPa, Liquid	399.2	–
483.11 K, Liquid, Inclined piston gauge	–	3.821
493.2 K, Liquid, Twin ebulliometer	–	5.333
500 K, 101.33 kPa, Liquid	413.42	–
506.16 K, Liquid, Twin ebulliometer	–	7.999
515.86 K, Liquid, Twin ebulliometer	–	10.67
520 K, 101.33 kPa, Liquid	427.39	–
523.7 K, Liquid, Twin ebulliometer	–	13.33
531.86 K, Liquid, Twin ebulliometer	–	16.66
538.62 K, Liquid, Twin ebulliometer	–	19.93
547.52 K, Liquid, Twin ebulliometer	–	25.02
547.53 K, Liquid, Twin ebulliometer	–	25.02
556.48 K, Liquid, Twin ebulliometer	–	31.17
565.49 K, Liquid, Twin ebulliometer	–	38.56
574.56 K, Liquid, Twin ebulliometer	–	47.37
583.67 K, Liquid, Twin ebulliometer	–	57.81
592.85 K, Liquid, Twin ebulliometer	–	70.11
602.07 K, Liquid, Twin ebulliometer	–	84.53
611.34 K, Liquid, Twin ebulliometer	–	101.32
620.67 K, Liquid, Twin ebulliometer	–	120.78
630.05 K, Liquid, Twin ebulliometer	–	143.23
639.47 K, Liquid, Twin ebulliometer	–	169
648.95 K, Liquid, Twin ebulliometer	–	198.46
658.48 K, Liquid, Twin ebulliometer	–	231.99
668.07 K, Liquid, Twin ebulliometer	–	269.98

Conditions	mass density [kg/m3]
[1], 373 K, 101.33 kPa, Liquid, Pycnometric method	1090

Conditions	Triple point temperature [K]
[1], Crystal, Adiabatic calorimetry	356.52

Conditions	Molar enthalpy of transition or fusion [kcal/mol]
[2]	3.9101
